Data as given in ChEMBL document CHEMBL1201862, “PubChem BioAssay data set” (2004).
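Five concentrations, 48 hours, 96-well plates. GI50 is the concentration that inhibits growth by half.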 The source made the active and inactive calls. Cut-off read from the data, not from the text of the source: active = GI50 up to about 1.1 µM and inactive = higher.

Assays:
Assay in all cases: growth of human tumour cells (NCI), 48 h
BT-549 = tested on: BT-549
EKVX = tested on: EKVX
HOP-92 = tested on: HOP-92
Hs-578T = tested on: Hs-578T
K562 = tested on: K562
KM12 = tested on: KM12
MDA-MB-231 = tested on: MDA-MB-231
MDA-MB-435 = tested on: MDA-MB-435
NCI-H23 = tested on: NCI-H23
NCI-H522 = tested on: NCI-H522
PC-3 = tested on: PC-3
RPMI-8226 = tested on: RPMI-8226
RXF 393 = tested on: RXF 393
SK-MEL-28 = tested on: SK-MEL-28
SK-MEL-2 = tested on: SK-MEL-2
SK-MEL-5 = tested on: SK-MEL-5
SW-620 = tested on: SW-620
TK-10 = tested on: TK-10
U-251 = tested on: U-251
UACC-62 = tested on: UACC-62

Measured: GI50

CCOC(=O)Cc1nn2c(=O)cc(C)nc2s1
inactive: BT-549 > 100 µM | EKVX > 100 µM | HOP-92 > 100 µM | Hs-578T > 100 µM | K562 > 100 µM | KM12 > 100 µM | MDA-MB-231 > 100 µM | MDA-MB-435 > 100 µM | NCI-H23 > 100 µM | NCI-H522 > 100 µM | PC-3 > 100 µM | RPMI-8226 > 100 µM | RXF 393 > 100 µM | SK-MEL-28 > 100 µM | SK-MEL-2 > 100 µM | SK-MEL-5 > 100 µM | SW-620 > 100 µM | TK-10 > 100 µM | U-251 > 100 µM | UACC-62 > 100 µM

COC(=O)C(=O)C(C(=O)C(=O)Nc1cc(C)ccc1C)c1nc2ccccc2nc1O (centres undefined)
inactive: BT-549 > 100 µM | EKVX 26.6 µM | HOP-92 26.7 µM | Hs-578T 74.3 µM | K562 > 100 µM | KM12 > 100 µM | MDA-MB-231 > 100 µM | MDA-MB-435 > 100 µM | NCI-H23 > 100 µM | NCI-H522 > 100 µM | PC-3 > 100 µM | RPMI-8226 19.6 µM | RXF 393 77.3 µM | SK-MEL-28 > 100 µM | SK-MEL-2 > 100 µM | SK-MEL-5 > 100 µM | SW-620 > 100 µM | TK-10 > 100 µM | U-251 > 100 µM | UACC-62 87.7 µM

CC(C)C1N(C)c2ccc(Cl)cc2[C@H]2c3ccccc3CCN12 (some centres undefined)
inactive: BT-549 > 100 µM | EKVX 28 µM | HOP-92 24.9 µM | Hs-578T 25.8 µM | K562 71.8 µM | KM12 50.9 µM | MDA-MB-231 24.4 µM | MDA-MB-435 23 µM | NCI-H23 > 100 µM | NCI-H522 21.9 µM | PC-3 62.4 µM | RPMI-8226 18.7 µM | RXF 393 47.5 µM | SK-MEL-28 54.8 µM | SK-MEL-2 25.9 µM | SW-620 97.3 µM | TK-10 89.9 µM | U-251 61.5 µM | UACC-62 25.4 µM

CC1=NN(c2nc(N)nc(C(C#N)C(=O)c3cc4c(cc3Cl)Sc3nccn3S4(=O)=O)n2)C(C)(C)C1 (centres undefined)
inactive: BT-549 13.6 µM | EKVX 16.9 µM | HOP-92 26.7 µM | Hs-578T 32.2 µM | K562 34.9 µM | KM12 20 µM | MDA-MB-231 15.6 µM | MDA-MB-435 22.8 µM | NCI-H23 16.1 µM | NCI-H522 18.6 µM | PC-3 29.2 µM | RPMI-8226 14.9 µM | RXF 393 27.3 µM | SK-MEL-28 20 µM | SK-MEL-2 20.2 µM | SK-MEL-5 14 µM | SW-620 20.5 µM | TK-10 17.9 µM | U-251 16 µM | UACC-62 18.8 µM

CCCCCCCCCCCCNC(=O)CCC(NC(=O)c1ccc(N(C)Cc2cnc3nc(N)nc(N)c3n2)cc1)C(=O)NCCCCCCCCCCCC (centres undefined)
inactive: BT-549 41.2 µM | EKVX > 100 µM | HOP-92 9.44 µM | Hs-578T 27.2 µM | K562 18.5 µM | KM12 46.7 µM | MDA-MB-231 10.1 µM | MDA-MB-435 52.8 µM | NCI-H23 53.3 µM | NCI-H522 > 100 µM | PC-3 > 100 µM | RPMI-8226 > 100 µM | RXF 393 18.4 µM | SK-MEL-28 43.3 µM | SK-MEL-2 30 µM | SK-MEL-5 > 100 µM | SW-620 29.6 µM | TK-10 38.3 µM | U-251 12.3 µM | UACC-62 55.5 µM

N#CC1(O)CCCCCCCCCCC1
inactive: BT-549 > 100 µM | EKVX > 100 µM | HOP-92 > 100 µM | Hs-578T > 100 µM | K562 > 100 µM | KM12 > 100 µM | MDA-MB-231 > 100 µM | MDA-MB-435 > 100 µM | NCI-H23 > 100 µM | NCI-H522 48.8 µM | PC-3 > 100 µM | RPMI-8226 > 100 µM | RXF 393 > 100 µM | SK-MEL-28 > 100 µM | SK-MEL-2 > 100 µM | SK-MEL-5 > 100 µM | SW-620 > 100 µM | TK-10 > 100 µM | U-251 > 100 µM | UACC-62 > 100 µM

[N-]=[N+]=Nc1ccc2c(c1)Sc1ccccc1N2CCCCN1CCN(Cc2ccc(C(=O)c3ccccc3)cc2)CC1
inactive: BT-549 > 20.7 µM | EKVX 6.67 µM | HOP-92 2.29 µM | Hs-578T 16.3 µM | K562 3.23 µM | KM12 3.01 µM | MDA-MB-231 3.11 µM | MDA-MB-435 4.92 µM | NCI-H23 6.49 µM | NCI-H522 1.85 µM | PC-3 3.35 µM | RPMI-8226 3.86 µM | RXF 393 1.72 µM | SK-MEL-28 1.96 µM | SK-MEL-2 2.65 µM | SK-MEL-5 2.13 µM | SW-620 6.22 µM | TK-10 > 39.6 µM | U-251 5.74 µM | UACC-62 2.43 µM

CCn1c(SCc2nnc(Nc3ccccc3)s2)nc2ccccc2c1=O
inactive: BT-549 5.24 µM | EKVX 3.56 µM | HOP-92 2.57 µM | Hs-578T 2.39 µM | K562 19.8 µM | KM12 2.38 µM | MDA-MB-231 3.18 µM | MDA-MB-435 10.3 µM | NCI-H23 4.7 µM | NCI-H522 2.09 µM | PC-3 8.79 µM | RPMI-8226 5.5 µM | RXF 393 4.04 µM | SK-MEL-28 16.4 µM | SK-MEL-2 5.14 µM | SK-MEL-5 8.15 µM | SW-620 16.8 µM | TK-10 3.45 µM | U-251 2.24 µM | UACC-62 3.3 µM

C/C(=N/NC(=S)N1CCN(C(=S)N/N=C(/C)c2ccccn2)CC1)c1ccccn1
inactive: BT-549 15.9 µM | EKVX 15.6 µM | HOP-92 > 46.2 µM | Hs-578T > 38 µM | K562 16.3 µM | KM12 16.5 µM | MDA-MB-231 45.2 µM | MDA-MB-435 28 µM | NCI-H23 10.1 µM | NCI-H522 7.64 µM | PC-3 14.3 µM | RPMI-8226 12.1 µM | RXF 393 3.52 µM | SK-MEL-28 14.3 µM | SK-MEL-2 > 100 µM | SK-MEL-5 6.97 µM | SW-620 7 µM | TK-10 4.84 µM | U-251 8.89 µM | UACC-62 6.71 µM

COc1ccc2nc3ccc(OC)cc3c(SCc3ccccc3)c2c1
inactive: BT-549 > 100 µM | EKVX > 100 µM | HOP-92 > 100 µM | Hs-578T > 100 µM | K562 > 63.2 µM | KM12 > 100 µM | MDA-MB-231 > 100 µM | MDA-MB-435 > 76.9 µM | NCI-H23 64.7 µM | NCI-H522 > 84.9 µM | PC-3 > 100 µM | RPMI-8226 48.8 µM | RXF 393 > 100 µM | SK-MEL-28 > 85.7 µM | SK-MEL-2 > 100 µM | SK-MEL-5 > 100 µM | SW-620 > 74.3 µM | TK-10 > 80.7 µM | U-251 > 88.3 µM | UACC-62 > 100 µM

Cc1ccc(SC(=O)N2C(=S)N=C(NC3CCCCC3)C23CCCCC3)cc1
inactive: BT-549 57.5 µM | EKVX > 100 µM | HOP-92 > 100 µM | Hs-578T 62.2 µM | K562 > 100 µM | KM12 69.7 µM | MDA-MB-231 > 100 µM | MDA-MB-435 > 100 µM | NCI-H23 > 100 µM | NCI-H522 65.8 µM | PC-3 44.6 µM | RPMI-8226 > 100 µM | RXF 393 70 µM | SK-MEL-28 > 100 µM | SK-MEL-2 > 100 µM | SK-MEL-5 > 100 µM | SW-620 > 100 µM | TK-10 25.2 µM | U-251 95.3 µM | UACC-62 > 100 µM

O=C(O)C1C(C(=O)Nc2ccc3c(c2)Cc2ccccc2-3)C2(Cl)C(Cl)=C(Cl)C1(Cl)C2(Cl)Cl (centres undefined)
inactive: BT-549 19.1 µM | EKVX 34.4 µM | HOP-92 21.5 µM | Hs-578T 19.9 µM | K562 2.6 µM | KM12 18.7 µM | MDA-MB-231 20.2 µM | MDA-MB-435 29.1 µM | NCI-H23 17.5 µM | NCI-H522 18.6 µM | PC-3 15.6 µM | RPMI-8226 14.6 µM | RXF 393 20.5 µM | SK-MEL-28 21.5 µM | SK-MEL-2 19.1 µM | SK-MEL-5 14.2 µM | SW-620 25.6 µM | TK-10 27.2 µM | U-251 15.2 µM | UACC-62 16.1 µM

CC1(c2nc3ccccc3[nH]2)CCC(C(=O)O)C(C)(C)O1 (centres undefined)
inactive: BT-549 > 100 µM | EKVX > 100 µM | HOP-92 > 100 µM | Hs-578T > 100 µM | K562 > 100 µM | KM12 26.5 µM | MDA-MB-231 > 100 µM | MDA-MB-435 > 100 µM | NCI-H23 > 100 µM | NCI-H522 > 100 µM | PC-3 > 100 µM | RPMI-8226 > 100 µM | RXF 393 > 100 µM | SK-MEL-28 > 100 µM | SK-MEL-2 > 100 µM | SK-MEL-5 > 100 µM | SW-620 > 100 µM | TK-10 > 100 µM | U-251 > 100 µM | UACC-62 > 100 µM

N=C(N)NCCN1CCCCCc2ccccc21
inactive: BT-549 7.08 µM | EKVX > 10 µM | HOP-92 5.24 µM | Hs-578T 8.05 µM | K562 > 10 µM | KM12 > 10 µM | MDA-MB-231 > 10 µM | MDA-MB-435 > 10 µM | NCI-H23 > 10 µM | NCI-H522 > 10 µM | PC-3 7.26 µM | RPMI-8226 > 10 µM | RXF 393 > 10 µM | SK-MEL-28 > 10 µM | SK-MEL-2 > 10 µM | SK-MEL-5 > 10 µM | SW-620 > 10 µM | TK-10 > 10 µM | U-251 > 10 µM | UACC-62 9.25 µM
